Measured values: article PMC10077203, “Structure modification, antialgal, antiplasmodial, and toxic evaluations of a series of new marine-derived 14-membered resorcylic acid lactone derivatives” (Marine Life Science & Technology, 2021)
Several values for one entry are separate records, joined by “and”; a condition that tells them apart may be missing. Identical values can stand only once. Like-named read-outs stand apart in the source and are kept apart here.

Tests used:
[1] = tested on: chloroquine sensitive HB3 strain of P. falciparum; assay: In vitro antiplasmodial assay (Pico-Green growth inhibition); format: cell-based, Plasmodium falciparum; settings: for IC50: Plasmodium falciparum; for antiplasmodial activity against P. falciparum (in words): structure-activity discussion; for P. falciparum SI, Selectivity Index (CC50/IC50): CC50 HUVEC / IC50 P. falciparum
Description: In vitro antiplasmodial activity was performed by culturing human erythrocytes and infecting them with P. falciparum, as reported by Trager and Jensen ([1976]). Briefly, the chloroquine sensitive HB3 strain of P. falciparum-infected O + erythrocytes was cultured in RPMI 1640 medium supplemented with 10% human serum (from O + blood) at a hematocrit of 2% erythrocytes at 37 °C with a gas mixture containing 90% N2, 5% CO2, and 5% O2. Parasites were synchronized with 5% D-sorbitol (Lambros and Vanderberg [1979]). P. falciparum growth inhibition bioassays were performed with the procedure as described by Corbett et al. ([2004]), which used Pico-Green, a double stranded-DNA fluorescent dye to test the effect of compounds.

N. laevissima = assay: Diatom growth inhibition assay (antialgal activity); format: cell-based, Navicula laevissima; settings: 48 h, read-out: EC50 N. laevissima
Description: (§1) The antialgal activity against the microalgae P. tricornutum Bohlin, C. vulgaris, C. socialis, N. laevissima, and N. exigua was evaluated by the method of Ortlepp et al. ([2008]). Briefly, the microalgae were grown in sterilized BG11 medium under light intensity of 2500 lx and 12 h: 12 h light: dark cycle at temperature of 20 ℃. The microalgae were grown to reach the logarithmic phase (approximately 5 × 10^5 cells/ml), which were used for microalgae growth inhibition assay. The compounds 1–71 were first dissolved in a small amount of DMSO and then diluted with 0.22 μm of filtered seawater (FSW) to achieve a range of concentrations from 0.625 to 50 μg/ml. Ten microliters of the compound solution was added to multiwell Petri dishes containing a 1-mL suspension of the microalgae (approximately 12 × 10^4 cells/ml). FSW with DMSO was used as a negative control, and solutions of SeaNine 211 in seawater were used as positive controls. After the plates were incubated for 48 h (16 ± 1 ℃) under continuous light, the FSW with non-attached microalgae was removed. The amount of chlorophyll a in attached microalgae was determined with a spectrophotometer (Beckman, model DU650, USA). Then the EC50 (inhibits 50% of settlement of cyprids in comparison with the control) was calculated using the Probit software program.

P. tricornutum Bohlin = assay: as above; format: cell-based, Phaeodactylum tricornutum Bohlin; settings: 48 h, read-out: EC50 P. tricornutum
Description: as §1

C. socialis = assay: as above; format: cell-based, Chaetoceros socialis; settings: 48 h, read-out: EC50 C. socialis
Description: as §1

N. exigua = assay: as above; format: cell-based, Navicula exigua
Description: as §1

C. vulgaris = assay: as above; format: cell-based, Chlorella vulgaris; settings: 48 h, read-out: EC50 C. vulgaris
Description: as §1

[2] = tested on: P. tricornutum Bohlin, C. vulgaris, C. socialis, N. laevissima, and N. exigua; assay: Diatom growth inhibition assay, whole panel; format: cell-based; settings: Chlorella vulgaris; selective and moderate activities; read-out: EC50 antialgal, range over compounds and algae
Description: as §1

[3] = In vitro cytotoxicity (CC50); format: cell-based; settings: human, HUVEC cells
Description: Toxicity is a major concern of drug discovery and development, and the selectivity index (SI) is used as the evaluation parameter of drug potential of the test samples by comparing the toxicity on a human cell line (CC50) and the selective inhibitory effect on P. falciparum (IC50) calculated here as CC50/IC50. We decided to evaluate in vitro cytotoxicity of the active derivatives 38, 39, 50, 52, 65, 67, 70, and 71 by determining their 50% cytotoxic concentrations. The results are presented in Table 3, presenting only those CC50 values > 100 μmol/L, reaching selectivity indexes > 10. The cytotoxic concentration at 150 μmol/L was not be determined because of a lack of solubility of the tested molecule in the culture medium. Moreover, the toxicity of these derivatives was also evaluated against two other cell lines: hepatocellular liver carcinoma cell line (Hep G2) and cervical carcinoma (HeLa), finding CC50 values > 100 μmol/L.

[4] = Sellaphora laevissima, chlorophyll a of attached microalgae
[5] = Phaeodactylum tricornutum, chlorophyll a of attached microalgae
[6] = Chaetoceros socialis, chlorophyll a of attached microalgae
[7] = 48 h, chlorophyll a of attached microalgae, read-out: EC50 N. exigua
[8] = Chlorella vulgaris, chlorophyll a of attached microalgae
[9] = chlorophyll a of attached microalgae
[10] = Erythrocyte, HB3 strain in human erythrocytes, read-out: P. falciparum IC50
[11] = 48 h, chlorophyll a of attached microalgae; read-out: EC50 N. exigua

Structure (SMILES): CCN(CC)CCCC(C)Nc1ccnc2cc(Cl)ccc12 (stereo not drawn) [Chloroquine, reference compound]
- IC50 ([1]; HB3, Erythrocyte, read-out: P. falciparum IC50): 37.9 µM
- IC50 ([1]; HB3, read-out: P. falciparum IC50 (positive control, methods)): 0.0329 µM

Structure (SMILES): COc1cc(O)c2c(c1)/C=C/C[C@H](O)[C@H](O)[C@@H](O)/C=C/C[C@H](C)OC2=O [Compound 1, zeaenol]
- EC50 (N. laevissima; Sellaphora laevissima): 8.79 µM
- EC50 (P. tricornutum Bohlin; Phaeodactylum tricornutum): 12.6 µM
- EC50 (C. socialis; Chaetoceros socialis): 25.4 µM
- EC50 (N. exigua; 48 h, read-out: EC50 N. exigua): 23.9 µM
- EC50 (C. vulgaris; Chlorella vulgaris): > 10 µM

Structure (SMILES): COc1cc(OC(=O)C(C)(C)C)c2c(c1Cl)C=CCC(O)C(O)C(O)C=CCC(C)OC2=O (stereo not drawn) [Compound 3]
- EC50 (N. laevissima; [4]): > 10 µM
- EC50 (P. tricornutum Bohlin; [5]): 22.3 µM
- EC50 [2]: 11 to 32.5 µM
- EC50 (C. socialis; [6]): > 10 µM
- EC50 (N. exigua; [7]): > 10 µM
- EC50 (C. vulgaris; [8]): 30.9 µM

Structure (SMILES): COc1cc2c(c(OCc3ccccc3)c1)C(=O)OC(C)CC=CC(O)C(O)C(O)CC=C2 (stereo not drawn) [Compound 4]
- EC50 (N. laevissima; [4]): 13.6 µM
- EC50 (P. tricornutum Bohlin; [5]): 21 µM
- EC50 [2]: 11 to 32.5 µM
- EC50 (C. socialis; [6]): > 10 µM
- EC50 (N. exigua; [7]): 11 µM
- EC50 (C. vulgaris; [8]): > 10 µM

Structure (SMILES): COc1cc2c(c(OCc3ccccc3Br)c1)C(=O)OC(C)CC=CC(O)C(O)C(O)CC=C2 (stereo not drawn) [Compound 9]
- EC50 (N. laevissima; [9]): 6.67 µM
- EC50 (N. laevissima; [4]): < 10 µM
- EC50 (P. tricornutum Bohlin; [9]): 6.99 µM
- EC50 (P. tricornutum Bohlin; [5]): < 10 µM
- EC50 (C. socialis; [9]): 9 µM
- EC50 (C. socialis; [6]): < 10 µM
- EC50 (N. exigua; [7]): 19.2 µM
- EC50 (C. vulgaris; [8]): > 10 µM

Structure (SMILES): COc1cc(COc2cc(OC)cc3c2C(=O)OC(C)CC=CC(O)C(O)C(O)CC=C3)cc(OC)c1 (stereo not drawn) [Compound 12]
- EC50 (N. laevissima; [4]): 20 µM
- EC50 (P. tricornutum Bohlin; [5]): 32.5 µM
- EC50 [2]: 11 to 32.5 µM
- EC50 (C. socialis; [6]): > 10 µM
- EC50 (N. exigua; [7]): > 10 µM
- EC50 (C. vulgaris; [8]): > 10 µM

Structure (SMILES): COc1cc(COc2cc(OC)c(Cl)c3c2C(=O)OC(C)CC=CC(O)C(O)C(O)CC=C3)cc(OC)c1 (stereo not drawn) [Compound 13]
- EC50 (N. laevissima; [4]): 16.9 µM
- EC50 (P. tricornutum Bohlin; [5]): 14 µM
- EC50 [2]: 11 to 32.5 µM
- IC50 [1, 10]: 12.6 µM
- antiplasmodial activity against P. falciparum (in words) [1]: active
- EC50 (C. socialis; [6]): 24 µM
- EC50 (N. exigua; [7]): > 10 µM
- EC50 (C. vulgaris; [8]): > 10 µM

Structure (SMILES): COc1cc2c(c(OCc3cc(F)cc(F)c3)c1)C(=O)OC(C)CC=CC(O)C(O)C(O)CC=C2 (stereo not drawn) [Compound 15]
- EC50 (N. laevissima; [4]): > 10 µM
- EC50 (P. tricornutum Bohlin; [5]): 33.1 µM
- EC50 [2]: 11 to 32.5 µM
- EC50 (C. socialis; [6]): 15 µM
- EC50 (N. exigua; [7]): 18.8 µM
- EC50 (C. vulgaris; [8]): > 10 µM

Structure (SMILES): COc1cc2c(c(OCc3ccc(Br)cc3F)c1)C(=O)OC(C)CC=CC(O)C(O)C(O)CC=C2 (stereo not drawn) [Compound 24]
- EC50 (N. laevissima; [4]): 22.4 µM
- EC50 (P. tricornutum Bohlin; [5]): 11.2 µM
- EC50 [2]: 11 to 32.5 µM
- EC50 (C. socialis; [6]): > 10 µM
- EC50 (N. exigua; [7]): 10.2 µM
- EC50 (C. vulgaris; [8]): > 10 µM

Structure (SMILES): CCC(=O)Oc1cc(OC)cc2c1C(=O)OC(C)CC=CC1OC(C)(C)OC1C(O)CC=C2 (stereo not drawn) [Compound 30]
- IC50 [1, 10]: 12.4 µM
- antiplasmodial activity against P. falciparum (in words) [1]: moderate activity

Structure (SMILES): COCC(=O)Oc1cc(OC)cc2c1C(=O)O[C@@H](C)C/C=C/[C@H](O)[C@@H](O)[C@@H](O)C/C=C/2 [Compound 34]
- EC50 (N. laevissima; [9]): 8.76 µM
- EC50 (N. laevissima; [4]): 8.55 µM
- EC50 (P. tricornutum Bohlin; [5]): 16.2 µM
- antiplasmodial activity against P. falciparum (in words) [1]: moderate activity
- EC50 (C. socialis; [6]): > 10 µM
- EC50 (N. exigua; [7]): 8.76 µM
- EC50 (N. exigua; [11]): 8.55 µM
- EC50 (C. vulgaris; [8]): 12.1 µM

Structure (SMILES): COCC(=O)Oc1cc(OC)c(Cl)c2c1C(=O)OC(C)CC=CC1OC(C)(C)OC1C(OC(=O)COC)CC=C2 (stereo not drawn) [Compound 35]
- IC50 [1, 10]: 11.6 µM

Structure (SMILES): COc1cc2c(c(OCc3ccc(C(F)(F)F)cc3)c1)C(=O)OC(C)CC=CC1OC(C)(C)OC1C(O)CC=C2 (stereo not drawn) [Compound 45]
- EC50 (N. laevissima; [4]): 27.4 µM
- EC50 (P. tricornutum Bohlin; [5]): > 10 µM
- EC50 [2]: 11 to 32.5 µM
- EC50 (C. socialis; [6]): > 10 µM
- EC50 (N. exigua; [7]): 18.3 µM
- EC50 (C. vulgaris; [8]): 13 µM

Structure (SMILES): COc1cc(COc2cc(OC)c(Cl)c3c2C(=O)OC(C)CC=CC2OC(C)(C)OC2C(O)CC=C3)cc(OC)c1 (stereo not drawn) [Compound 50]
- CC50 [3]: > 100 µM
- P. falciparum SI, Selectivity Index (CC50/IC50) [1]: > 12
- IC50 [1, 10]: 7.82 µM
- antiplasmodial activity against P. falciparum (in words) [1]: active

Structure (SMILES): COC(=O)c1ccc(COc2cc(OC)c(Cl)c3c2C(=O)OC(C)CC=CC2OC(C)(C)OC2C(O)CC=C3)cc1 (stereo not drawn) [Compound 52]
- CC50 [3]: > 100 µM
- P. falciparum SI, Selectivity Index (CC50/IC50) [1]: > 10
- IC50 [1, 10]: 9.72 µM

Structure (SMILES): [2H]C([2H])([2H])C1(C([2H])([2H])[2H])OC2C=CCC(C)OC(=O)c3c(cc(OC)cc3OCc3ccccc3Br)C=CCC(O)C2O1 (stereo not drawn) [Compound 58]
- EC50 (N. laevissima; [4]): > 10 µM
- EC50 (P. tricornutum Bohlin; [5]): 28.2 µM
- EC50 [2]: 11 to 32.5 µM
- EC50 (C. socialis; [6]): > 10 µM
- EC50 (N. exigua; [7]): 20.1 µM
- EC50 (C. vulgaris; [8]): 15.9 µM

Structure (SMILES): [2H]C([2H])([2H])C1(C([2H])([2H])[2H])OC2C=CCC(C)OC(=O)c3c(cc(OC)cc3OCc3cccc(F)c3)C=CCC(O)C2O1 (stereo not drawn) [Compound 60]
- antiplasmodial activity against P. falciparum (in words) [1]: active

Structure (SMILES): [2H]C([2H])([2H])C1(C([2H])([2H])[2H])OC2C=CCC(C)OC(=O)c3c(cc(OC)cc3OCc3cccc(C)c3)C=CCC(O)C2O1 (stereo not drawn) [Compound 62]
- EC50 (N. laevissima; [4]): > 10 µM
- EC50 (P. tricornutum Bohlin; [5]): > 10 µM
- EC50 [2]: 11 to 32.5 µM
- EC50 (C. socialis; [6]): 25.8 µM
- EC50 (N. exigua; [7]): 14.2 µM
- EC50 (C. vulgaris; [8]): 16.3 µM

Structure (SMILES): [2H]C([2H])([2H])C1(C([2H])([2H])[2H])OC2C=CCC(C)OC(=O)c3c(cc(OC)cc3OCc3ccc(-c4ccccc4C#N)cc3)C=CCC(O)C2O1 (stereo not drawn) [Compound 65]
- CC50 [3]: > 100 µM
- P. falciparum SI, Selectivity Index (CC50/IC50) [1]: > 12
- IC50 [1, 10]: 7.82 µM

Structure (SMILES): CCC(=O)Oc1cc(OC)cc2c1C(=O)OC(C)CC=CC(OC(=O)CC)C(OC(=O)CC)C(OC(=O)CC)CC=C2 (stereo not drawn) [Compound 69]
- IC50 [1, 10]: 9.18 µM

Structure (SMILES): CCCCCCCCn1sc(Cl)c(Cl)c1=O [SeaNine 211, reference compound]
- EC50 (N. laevissima; [9]): 2.9 µM
- EC50 (P. tricornutum Bohlin; [9]): 0.74 µM
- EC50 (C. socialis; [9]): 1.87 µM
- EC50 (N. exigua; [11]): 9.74 µM and 9.47 µM
- EC50 (C. vulgaris; [9]): 6.52 µM
